Laboratory results from patent US20240182431A1, “NEW CONTRAST AGENT FOR USE IN MAGNETIC RESONANCE IMAGING” (Bayer Aktiengesellschaft, priority 2021, published 2024).
Values belong to the compound of their own block, whether it stands above or below them.

Tests used:
[1] = Partition coefficient (logP butanol/buffer); assay type: physicochemical; conditions: 1-butanol / 50 mM Tris-HCl, pH 7.4, room temperature
[2] = bovine plasma instead of human plasma, 1.5 T, 37° C., from Rohrer et al.; cited from earlier work
[3] = Biliary elimination in bile duct cannulated rats; conditions: BDC rats, i.v. bolus
[4] = Excretion study in rats (5 days) and residual gadolinium organ distribution (7 days); assay type: in vivo, rat; conditions: male rats, 0.1 mmol Gd/kg bw i.v.; for Σ organs and carcass: 7 d post injection
Experimental: The excretion and organ distribution of Example 1 and 15 were determined in male rats (Han-Wistar, n=3). The compound was administered as a sterile aqueous solution (50 mmol Gd/L) as a bolus in the tail vein of the animals. The dose was 0.1 mmol Gd/kg bw.
Urine was collected in the following time periods 0-1 h, 1-3 h, 3-6 h, 6-24 h, 1-2 d and 2-5 d post injection […] and feces 0-1 d, 1-2 d and 2-5 d post injection. As a control, 3 animals were treated in the same way with RC1. On day 7 the animals were sacrificed, and the following organs were excised: blood, liver, kidney, spleen, heart, lung, brain, muscle, skin, stomach, gut, bone and bone marrow. The remaining carcass was freeze dried and ground to a fine powder. The Gd concentration in the organs and the carcass was determined by ICP-MS (ICP-MS Agilent 7500a, Waldbronn, Germany). The compounds are excreted via dual pathway (liver and kidney). Less than 1% of the administered dose was present in the body 7 days after the injection.

Compound: CCOc1ccc(CCOCC(C(=O)O)N2CCN(CC(=O)[O-])CCN(CC(=O)[O-])CCN(CC(=O)[O-])CC2)cc1.[Gd+3] (centres unmarked) [Example 1, gadolinium 2,2′,2″-(10-{1-carboxy-2-[2-(4-ethoxyphenyl)ethoxy]ethyl}-1,4,7,10-tetraazacyclododecane-1,4,7-triyl)triacetate]
Biliary excretion, Mean ± SD (cumulative) ([3]; bile fraction 0-0.5 h): 55.5 ± 1.7% of injected dose
Biliary excretion, Mean ± SD (cumulative) ([3]; bile fraction 0.5-1 h): 62.6 ± 0.7% of injected dose
Biliary excretion, Mean ± SD (cumulative) ([3]; bile fraction 1-2 h): 65.1 ± 1.3% of injected dose
Biliary excretion, Mean ± SD (cumulative) ([3]; bile fraction 2-3 h): 65.6 ± 1.6% of injected dose
Biliary excretion, Mean ± SD (cumulative) ([3]; bile fraction 3-4 h): 65.8 ± 1.7% of injected dose
Log P (butanol/buffer) [1]: −0.98
Excretion Urine ([4]; 0-1 h post injection): 39.8 ± 6.8% Dose
Excretion Feces ([4]; 0-1 d post injection): 55.6 ± 5.6% Dose
Excretion Urine ([4]; 1-3 h post injection): 40.3 ± 6.8% Dose
Excretion Feces ([4]; 1-2 d post injection): 56.9 ± 6.6% Dose
Excretion Urine ([4]; 1-2 d post injection): 40.9 ± 7.4% Dose
Excretion Feces ([4]; 2-5 d post injection): 57.0 ± 6.6% Dose
Excretion Urine ([4]; 2-5 d post injection): 40.9 ± 7.4% Dose
Excretion Urine ([4]; 3-6 h post injection): 40.3 ± 6.8% Dose
Excretion Urine ([4]; 6-24 h post injection): 40.8 ± 7.4% Dose
Σ organs and carcass [4]: 0.65 ± 0.07% Dose
Total recovery [4]: 98.6 ± 2.1% Dose

Compound: CCOCCOCCOc1ccc(CCC[C@@H](C(=O)O)N2CCN([C@@H](CO)C(=O)[O-])CCN([C@@H](CO)C(=O)[O-])CCN([C@@H](CO)C(=O)[O-])CC2)cc1.[Gd+3] [Example 15, gadolinium (2S,2′S,2″S)-2,2′,2″-{10-[(1S)-1-carboxy-4-{4-[2-(2-ethoxyethoxy)ethoxy]phenyl}butyl]-1,4,7,10-tetraazacyclododecane-1,4,7-triyl}tris(3-hydroxypropanoate)]
Log P (butanol/buffer) [1]: −1.00
Excretion Urine ([4]; 0-1 h post injection): 12.6 ± 11.1% Dose
Excretion Feces ([4]; 0-1 d post injection): 78.6 ± 6.2% Dose
Excretion Urine ([4]; 1-3 h post injection): 17.3 ± 3.4% Dose
Excretion Feces ([4]; 1-2 d post injection): 80.0 ± 5.3% Dose
Excretion Urine ([4]; 1-2 d post injection): 17.7 ± 3.3% Dose
Excretion Feces ([4]; 2-5 d post injection): 80.0 ± 5.3% Dose
Excretion Urine ([4]; 2-5 d post injection): 17.7 ± 3.3% Dose
Excretion Urine ([4]; 3-6 h post injection): 17.4 ± 3.3% Dose
Excretion Urine ([4]; 6-24 h post injection): 17.6 ± 3.3% Dose
Σ organs and carcass [4]: 0.11 ± 0.03% Dose
Total recovery [4]: 97.9 ± 5.4% Dose

Compound: CCOCCOCCOc1cc(CC(C(=O)O)N2CCN(CC(=O)[O-])CCN(CC(=O)[O-])CCN(CC(=O)[O-])CC2)cc(OCCOCCOCC)c1.[Gd+3] (centres unmarked) [Example 39, gadolinium 2,2′,2″-{10-[2-{3,5-bis[2-(2-ethoxyethoxy)ethoxy]phenyl}-1-carboxyethyl]-1,4,7,10-tetraazacyclododecane-1,4,7-triyl}triacetate]
Log P (butanol/buffer) [1]: −1.32

Compound: CCOCCOCCOCCOc1ccc(C[C@@H](C(=O)O)N2CCN(CC(=O)[O-])CCN(CC(=O)[O-])CCN(CC(=O)[O-])CC2)c(OCCOCCOCCOCC)c1.[Gd+3] [Example 40, gadolinium 2,2′,2″-{10-[(1S)-2-(2,4-bis{2-[2-(2-ethoxyethoxy)ethoxy]ethoxy}phenyl)-1-carboxyethyl]-1,4,7,10-tetraazacyclododecane-1,4,7-triyl}triacetate]
Log P (butanol/buffer) [1]: −1.43

Compound: CCOCCOCCOc1ccc(CC(C(=O)O)N2CCN(CC(=O)[O-])CCN(C(CO)C(=O)[O-])CCN(CC(=O)[O-])CC2)cc1.[Gd+3] (centres unmarked) [Example 41, gadolinium-2-{7-[1-carboxy-2-{4-[2-(2-ethoxyethoxy)ethoxy]phenyl}ethyl]-4,10-bis(carboxylatomethyl)-1,4,7,10-tetraazacyclododecan-1-yl}-3-hydroxypropanoate]
Log P (butanol/buffer) [1]: −1.61

Compound: CCOCCOCCOCCOc1ccc(CC(C(=O)O)N2CCN(CC(=O)[O-])CCN(C(CO)C(=O)[O-])CCN(CC(=O)[O-])CC2)cc1.[Gd+3] (centres unmarked) [Example 42, gadolinium-2-{7-[1-carboxy-2-(4-{2-[2-(2-ethoxyethoxy)ethoxy]ethoxy}phenyl)ethyl]-4,10-bis(carboxylatomethyl)-1,4,7,10-tetraazacyclododecan-1-yl}-3-hydroxypropanoate]
Log P (butanol/buffer) [1]: −1.60

Compound: CCOCCOCCOc1ccc(CC(C(=O)[O-])N2CCN(CC(=O)[O-])CCN(C(CC)C(=O)O)CCN(CC(=O)[O-])CC2)cc1.[Gd+3] (centres unmarked) [Example 43, gadolinium-2-{4,10-bis(carboxylatomethyl)-7-[1-carboxypropyl]-1,4,7,10-tetraazacyclododecan-1-yl}-3-{4-[2-(2-ethoxyethoxy)ethoxy]phenyl}propanoate]
Log P (butanol/buffer) [1]: −1.19

Compound: O=C([O-])CN1CCN(CC(=O)[O-])CCN(C(Cc2ccc(OCC(F)(F)C(F)F)cc2)C(=O)O)CCN(CC(=O)[O-])CC1.[Gd+3] (centres unmarked) [Example 46, gadolinium 2,2′,2″-(10-{1-carboxy-2-[4-(2,2,3,3-tetrafluoropropoxy)phenyl]ethyl}-1,4,7,10-tetraazacyclododecane-1,4,7-triyl)triacetate]
Log P (butanol/buffer) [1]: −0.57

The next lines start with results.

Log P (butanol/buffer) [1]: −2.22
Compound: O=C([O-])CN1CCN(CC(=O)[O-])CCN([C@H](CO)[C@H](O)CO)CCN(CC(=O)[O-])CC1.[Gd+3] (racemic) [RC3, gadobutrol, reference compound]
r1 human plasma [2]: 5.2 L/mmol/s

Log P (butanol/buffer) [1]: −0.36
Compound: COCC(C(=O)O)N1CCN(CC(=O)[O-])CCN(C(Cc2ccc(OCC(F)(F)C(F)F)cc2)C(=O)[O-])CCN(CC(=O)[O-])CC1.[Gd+3] (centres unmarked) [Example 45, gadolinium-2-{4,10-bis(carboxylatomethyl)-7-[1-carboxy-2-methoxyethyl]-1,4,7,10-tetraazacyclododecan-1-yl}-3-[4-(2,2,3,3-tetrafluoropropoxy)phenyl]propanoate]

Log P (butanol/buffer) [1]: −0.77
Compound: O=C([O-])CN1CCN(CC(=O)[O-])CCN([C@H](Cc2ccc(OCC(F)(F)F)cc2)C(=O)O)CCN(CC(=O)[O-])CC1.[Gd+3] [Example 47, gadolinium 2,2′,2″-(10-{(1R)-1-carboxy-2-[4-(2,2,2-trifluoroethoxy)phenyl]ethyl}-1,4,7,10-tetraazacyclododecane-1,4,7-triyl)triacetate]

Log P (butanol/buffer) [1]: −2.07
Compound: O=C([O-])CN(CCN(CC(=O)[O-])CC(=O)[O-])CCN(CC(=O)[O-])C(COCc1ccccc1)C(=O)[O-].[Gd+3] (centres unmarked) [RC2, Gd-BOPTA, reference compound]
r1 human plasma [2]: 4.1 L/mmol/s
